Laboratory results reported in patent US20260265216A1, “NOVEL THIOREDOXIN REDUCTASE INHIBITORS” (GENEXPLAIN GMBH, priority 2021, published 2026).

Legend:
[1] = test system: cancer cells; experiment: Cell growth assay, combination with BSO; format: cell-based; conditions: 5 μM 1d*HCl and 50 μM BSO
Description: Further, we tested whether the inhibition of GR by BSO will have additive effect with 1d*HCl. If 1d*HCl mechanism of action includes inhibition of GR, BSO will not have an additive effect. We used a range of concentrations of 1d*HCl and BSO in cell growth assays. […] Next, we tested whether the prevention of oxidative stress by NAC will affect the growth suppression by the combination of 1d*HCl and BSO. In the presence of NAC we observed the additive effect of 1d*HCl with 50 μM BSO only at twice higher dose of 1d*HCl-10 μM.

[2] = Growth suppression with selenium in culture medium; format: cell-based; conditions: selenium added to culture medium
Excerpt: To find out whether the inhibition of TrxR1 is the major mechanism of action of 1d*HCl, we addressed the question, whether stimulation of TrxR1 activity will decrease the growth suppression activity of 1d*HCl. Since TrxR is a selenium-containing enzyme and the concentration of selenium is rate-limiting for TrxR1, we added selenium to culture medium to test whether selenium will alleviate the growth suppression by 1d*HCl.

[3] = test system: B16 melanoma; experiment: B16 melanoma mouse model; format: in vivo, C57BL/6 mice; conditions: 10 mg/kg i.p. every other day for 9 days, day 8 and day 9
Description: For the B16 melanoma mouse model, 6-weeks-old female C57BL/6 mice were injected subcutaneously with 1×10^6 B16 cells. When the tumors reached 80-120 mm^3, 10 mg/kg of 1d*HCl were administered intraperitoneally every other day for 9 days (days 1, 3, 5, 7, 9). Tumor volume was measured by caliper three times per week, and the volume was calculated based on the formula (in ml): L/10*W/10*W/10*0.44 (L-length, W=width of tumor). Mice were sacrificed when tumors reached 2 cm^3 or upon bleeding.
We tested the anti-tumor activity of 1d*HCl using allogenic model of B16 mice. We inoculated mice with B16 melanoma cells. When the tumors reached 100 mm^3, we treated them with i.p. injection of 1d*HCl, 10 mg/kg every other day for 9 days. […] The differences in tumor volume between untreated control mice and animals treated with 1d*HCl are all statistically significant. Thus, 1d*HCl has in vivo anti-tumor activity in this animal tumor model.

[4] = test system: cancer cells grown in hypoxia; experiment: Growth suppression under hypoxia versus normoxia; format: cell-based; conditions: hypoxia vs normoxia
Description: Breast, colon, ovarian, cervical, liver and lung carcinoma cell lines were grown in DMEM supplemented with 10% FBS, and antibiotics were cultured at 37° C. and 5% CO2. Osteosarcoma, melanoma, lymphoma, neuroblastoma and leukemia cell lines were cultured in RPMI 1640 with 10% FBS and antibiotics. An oxygen concentration of 0.3% was obtained by flushing a sealed box containing the cells with premixed gas composed of 95% nitrogen (N2) and 5% CO2 (AGA AB, Sweden). To obtain an oxygen concentration of 0.05%, the cells were flushed with the premixed gas continuously throughout the experiment.
Hypoxic tumors are often the most aggressive and resistant to chemotherapy. Therefore, we tested how cells in hypoxia will respond to the treatment by 1d*HCl. It has been shown that 1d*HCl is even more efficient in hypoxia condition. […] Thus, the compounds of the present invention are of great interest for the treatment of hypoxic solid tumors.

[5] = test system: cancer cells; experiment: Oxidative stress measurement (DCFH-DA, ROS); format: cell-based
Description: Cells were treated with compounds and incubated 30 min with 10 μM DCF-DA in serum free medium. Afterward, cells were trypsinized, washed with PBS and fluorescence was analyzed by a FACSCalibur flow cytometer (BD Biosciences) using FL1-H channel.
To get insight into the mechanism of the anti-tumor activity of 1d*HCl, we tested the level of oxidative stress upon treatment. We measured the induction of reactive oxygen species (ROS), using 2′-7′-Dichlorodihydrofluorescein diacetate (DCFH-DA)-based assay. […] After 8 h of treatment, the induction of reactive oxygen species (ROS) was much higher.

[6] = test system: HCT116 cells; experiment: Growth suppression in the presence of antioxidant NAC; format: cell-based; conditions: HCT116, 5 mM NAC 16 h pre-treatment; 2.5, 5, 10 μM; 24 h
Description: To find out whether oxidative stress plays a role in cancer cell death induced by 1d*HCl, we tested the extent of growth suppression by the treatment in the presence of antioxidant N-acetyl cysteine (NAC), which neutralize ROS. We pre-treated HCT116 cells with 5 mM NAC. After 16 h of incubation with NAC, we treated HCT116 cells with 2.5, 5, and 10 μM of 1d*HCl. We measured the growth suppression 24 h after treatment. […] Thus, we conclude that the mechanism of cancer cell growth suppression is dependent on the induction of oxidative stress by the compounds of the present invention.

[7] = molecular target: T1, recombinant purified TrxR1 (Homo sapiens, UniProt Q16881); experiment: TrxR1 enzymatic activity measurement in vitro; format: biochemical; conditions: recombinant purified enzyme in vitro
T1 construct: made in house; host or cells: Release Factor 1-depleted E. coli strain
T1 sequence (Q16881 1-499 isoform Q16881-5): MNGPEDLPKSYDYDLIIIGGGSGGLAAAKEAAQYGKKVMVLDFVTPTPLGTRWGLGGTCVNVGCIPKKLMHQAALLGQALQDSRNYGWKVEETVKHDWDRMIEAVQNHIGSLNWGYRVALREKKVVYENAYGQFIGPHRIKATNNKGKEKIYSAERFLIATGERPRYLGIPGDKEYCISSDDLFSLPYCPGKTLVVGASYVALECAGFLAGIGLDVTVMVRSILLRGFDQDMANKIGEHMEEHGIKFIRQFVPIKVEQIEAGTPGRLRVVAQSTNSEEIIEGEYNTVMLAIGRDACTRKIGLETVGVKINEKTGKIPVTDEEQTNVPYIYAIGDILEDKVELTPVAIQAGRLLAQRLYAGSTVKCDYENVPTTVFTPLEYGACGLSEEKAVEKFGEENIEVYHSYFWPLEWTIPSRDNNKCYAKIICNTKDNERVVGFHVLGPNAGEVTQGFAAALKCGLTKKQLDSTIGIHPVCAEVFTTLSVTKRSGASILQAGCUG
Description: TrxR1 enzyme was recombinantly produced with high Sec contents in a specific Release Factor 1-depleted E. coli strain and purified as previously described (Arnér E S J, Holmgren A, in Current Protocols in Toxicology, Maines M, Costa L, Reed D, Sassa S, Eds. (John Wiley & Sons, Inc., New York, 2000), pp. 7.4.1-7.4.14). TrxR1 and GSR (Sigma) recombinant enzyme assays were performed in a reaction buffer containing 50 mM Tris pH 7.5 with 2 mM EDTA and 0.1 mg/mL bovine serum albumin as described previously (Arnér E S J, Holmgren A, in Current Protocols in Toxicology, Maines M, Costa L, Reed D, Sassa S, Eds. (John Wiley & Sons, Inc., New York, 2000), pp. 7.4.1-7.4.14). Briefly, assays were performed in triplicate using 96-well plates, with activity inferred from absorbance changes using a Spectra Max plate reader. Results of recombinant enzyme assays were normalized to DMSO and to no enzyme controls.
We used recombinant purified TrxR1 and GR in an in vitro assay as described in methods section.

IC50 in hypoxia lower than that in normoxia [4]: 2.3 fold
SMILES: Cl.N#Cc1c(-c2cccnc2)[n+]([O-])c2cc(F)c(N3CCOCC3)cc2[n+]1[O-] [Compound 1d*HCl, 6-Fluoro-7-(morpholin-4-yl)-3-(pyridin-3-yl)quinoxaline-2-carbonitrile-1,4-dioxide hydrochloride]
effect of combination with BSO on cell growth [1]: have an additive effect and completely eradicated cancer cells
growth suppression in the presence of selenium [2]: less efficient in the presence of selenium
tumor volume compared to vehicle-treated mice [3]: lower volume of tumors
induction of reactive oxygen species (DCF fluorescence) ([5]; 2 h after treatment): significant increase in DCF fluorescence
induction of reactive oxygen species (ROS) ([5]; after 8 h of treatment): much higher
growth suppression after prevention of ROS accumulation by NAC [6]: almost completely abolished the growth suppression
inhibition of enzymatic activity of TrxR1 [7]: efficiently inhibited the enzymatic activity of TrxR1 in a dose- and time-dependent manner
